Reference: PMC10066365, “Nemacol is a small molecule inhibitor of C. elegans vesicular acetylcholine transporter with anthelmintic potential” (Nature Communications, 2023)
Values joined by “and” are separate entries in the source; they are usually repeats but may differ in a detail not shown here. Equal entries are not always repeated. Where two headings read alike, the source gives them in different places.

What was measured:
C. elegans unc-17(e245) = settings: for development average norm L4/As / viability Avg: CB245 unc-17(e245); for nemacol-1 x ivermectin matrix dose-response raw data: unc-17(e245) + 0 uM nemacol, 3 replicate columns
Haemonchus contortus = Haemonchus contortus L3 Migration Trap Assay (motility, 24 h exposure); settings: hc weybridge, 24 h; for raw: raw motility readout
C. elegans = C. elegans 3-day liquid viability assay, Nemacol-1 x Ivermectin matrix, wild type; settings: for development average norm L4/As / viability Avg / average progress to L4 (development) / average viability (relative to control): N2; for average progress to L4 (development) / average viability (relative to control): Nemacol-1-1 0; for nemacol-1 x ivermectin matrix dose-response raw data: wt (N2) + 0 uM nemacol, 3 replicate columns
C. elegans DA1316 = assay: C. elegans 3-day liquid viability assay, DA1316 avr-14; avr-15; […]; type: in vivo, Caenorhabditis elegans; settings: DA1316, nemacol-1 0
[1] = ivermectin 0.001875 uM (row head 1.875)
[2] = ivermectin 0.00375 uM (row head 3.75)
[3] = ivermectin 0.06 uM (row head 60)
[4] = ivermectin 0.0195312 µM + Nemacol_53 26.4 µM
[5] = ivermectin 0.0195312 µM + Nemacol_53 16.8 (unit not given)
[6] = ivermectin 0.078125 µM + Nemacol_53 26.4 µM
[7] = ivermectin 0.078125 µM + Nemacol_53 16.8 (unit not given)
[8] = ivermectin 5 µM + Nemacol_53 16.8 (unit not given)
[9] = ivermectin 0.00046875 uM (Fig. 5AC sheet)
[10] = ivermectin 0.0009375 uM (Fig. 5AC sheet)
[11] = ivermectin 0.001875 uM (Fig. 5AC sheet)
[12] = ivermectin 0.00375 uM (Fig. 5AC sheet)
[13] = ivermectin 0.03 uM (Fig. 5AC sheet)
[14] = ivermectin 0.06 uM (Fig. 5AC sheet)

In the case of `CC[C@H](C)[C@H]1O[C@]2(CC[C@@H]1C)C[C@@H]1C[C@@H](C/C=C(\C)[C@@H](O[C@H]3C[C@H](OC)[C@@H](O[C@H]4C[C@H](OC)[C@@H](O)[C@H](C)O4)[C@H](C)O3)[C@@H](C)/C=C/C=C3\CO[C@@H]4[C@H](O)C(C)=C[C@@H](C(=O)O1)[C@]34O)O2` [ivermectin], the “development average norm L4/As” value (C. elegans unc-17(e245); ivermectin 0.00046875 uM) is reported as 91.4, the “viability Avg” value (C. elegans unc-17(e245); ivermectin 0.00046875 uM) is reported as 0.92 and the “development average norm L4/As” value (C. elegans unc-17(e245); ivermectin 0.0009375 uM) is reported as 102.0. The “viability Avg” value (C. elegans unc-17(e245); ivermectin 0.0009375 uM) was 1.02, the “development average norm L4/As” value (C. elegans unc-17(e245); ivermectin 0.001875 uM) was 96.6 and the “viability Avg” value (C. elegans unc-17(e245); ivermectin 0.001875 uM) was 0.97. The “development average norm L4/As” value (C. elegans unc-17(e245); ivermectin 0.00375 uM) was 94.6, the “viability Avg” value (C. elegans unc-17(e245); ivermectin 0.00375 uM) was 0.95 and the “development average norm L4/As” value (C. elegans unc-17(e245); ivermectin 0.03 uM) was 1.1. For the same compound, the “viability Avg” value (C. elegans unc-17(e245); ivermectin 0.03 uM) was 0.03, the “development average norm L4/As” value (C. elegans unc-17(e245); ivermectin 0.06 uM) was 0.0 and the “viability Avg” value (C. elegans unc-17(e245); ivermectin 0.06 uM) was 0.00. For the same compound, the “nemacol-1 x ivermectin matrix dose-response raw data” value (C. elegans unc-17(e245); [1]) was 100.0 and 98.2 and 92.0, the “nemacol-1 x ivermectin matrix dose-response raw data” value (C. elegans unc-17(e245); [2]) was 94.6 and 102.2 and 87.1 and the “nemacol-1 x ivermectin matrix dose-response raw data” value (C. elegans unc-17(e245); [3]) was 0.0. The efficacy (Haemonchus contortus; [4]) was 51.6335 and 46.2111 and 62.2283, the efficacy (Haemonchus contortus; [5]) was 45.9092 and 67.7834 and 50.4898 and the efficacy (Haemonchus contortus; [6]) was 64.6293 and 71.8721 and 59.357. The efficacy (Haemonchus contortus; [7]) was 51.0321 and 52.0838 and 33.3542, the efficacy (Haemonchus contortus; ivermectin 0.078125 µM alone) was 36.1803 and 63.8058 and 55.3013 and the efficacy (Haemonchus contortus; ivermectin 0.3125 µM + Nemacol_53 26.4 µM) was 79.9766 and 60.2317 and 86.7864. The efficacy (Haemonchus contortus; ivermectin 0.3125 µM + Nemacol_53 16.8 (unit not given)) was 66.3699 and 69.3635 and 88.9679, the efficacy (Haemonchus contortus; ivermectin 0.3125 µM alone) was 59.3102 and 77.8029 and 70.3944 and the efficacy (Haemonchus contortus; ivermectin 1.25 µM + Nemacol_53 26.4 µM) was 80.8981 and 87.2376 and 93.0175. For the same compound, the efficacy (Haemonchus contortus; ivermectin 1.25 µM + Nemacol_53 16.8 (unit not given)) was 94.1091 and 79.6798 and 82.4964, the efficacy (Haemonchus contortus; ivermectin 1.25 µM alone) was 87.3643 and 74.9707 and 86.5339 and the efficacy (Haemonchus contortus; ivermectin 5 µM + Nemacol_53 26.4 µM) was 82.4313 and 91.8131 and 94.4761. The efficacy (Haemonchus contortus; [8]) was 92.0083 and 91.7168 and 89.2099, the efficacy (Haemonchus contortus; ivermectin 5 µM alone) was 83.6288 and 93.388 and 88.8663 and the efficacy (Haemonchus contortus; ivermectin 20 µM + Nemacol_53 26.4 µM) was 86.7838 and 88.1791 and 95.9929. For the same compound, the efficacy (Haemonchus contortus; ivermectin 20 µM + Nemacol_53 16.8 (unit not given)) was 95.5746 and 77.0116 and 89.754, the efficacy (Haemonchus contortus; ivermectin 20 µM alone) was 95.1061 and 89.4651 and 83.7772 and the raw (Haemonchus contortus; ivermectin 0.0012207 µM + Nemacol_53 26.4 µM) was 51596.5 and 71143.5 and 66277.5. For the same compound, the raw (Haemonchus contortus; ivermectin 0.0012207 µM + Nemacol_53 16.8 (unit not given)) was 67834.5 and 50419 and 52275.5, the raw (Haemonchus contortus; ivermectin 0.0012207 µM alone) was 49240 and 71073.5 and 61317 and the raw (Haemonchus contortus; ivermectin 0.00488281 µM + Nemacol_53 26.4 µM) was 28751.5 and 44196 and 37912.5. The raw (Haemonchus contortus; ivermectin 0.00488281 µM alone) was 43303 and 44672.5 and 57159.5, the raw (Haemonchus contortus; [4]) was 27870 and 30994.5 and 21765 and the raw (Haemonchus contortus; [5]) was 31168.5 and 18564 and 28529. For the same compound, the raw (Haemonchus contortus; ivermectin 0.0195312 µM alone) was 32641 and 25525.5 and 49250.5, the raw (Haemonchus contortus; [6]) was 20381.5 and 16208 and 23419.5 and the raw (Haemonchus contortus; [7]) was 28216.5 and 27610.5 and 38403. For the same compound, the raw (Haemonchus contortus; ivermectin 0.078125 µM alone) was 36774.5 and 20856 and 25756.5, the raw (Haemonchus contortus; ivermectin 0.3125 µM alone) was 23446.5 and 12790.5 and 17059.5 and the raw (Haemonchus contortus; ivermectin 1.25 µM alone) was 7281 and 14422.5 and 7759.5. The raw (Haemonchus contortus; [8]) was 4605 and 4773 and 6217.5, the “development average norm L4/As” value (C. elegans; [9]) was 99.0 and the “viability Avg” value (C. elegans; [9]) was 0.99. For the same compound, the “development average norm L4/As” value (C. elegans; [10]) was 105.0, the “viability Avg” value (C. elegans; [10]) was 1.05 and the “average progress to L4 (development)” value (C. elegans; ivermectin 0.0009375 uM) was 107.265. The “average viability (relative to control)” value (C. elegans; ivermectin 0.0009375 uM) was 1.077, the “development average norm L4/As” value (C. elegans; [11]) was 102.7 and the “viability Avg” value (C. elegans; [11]) was 1.03. For the same compound, the “average progress to L4 (development)” value (C. elegans; ivermectin 0.001875 uM) was 88.2297, the “average viability (relative to control)” value (C. elegans; ivermectin 0.001875 uM) was 0.8852 and the “development average norm L4/As” value (C. elegans; [12]) was 101.8. The “viability Avg” value (C. elegans; [12]) was 1.03, the “average progress to L4 (development)” value (C. elegans; ivermectin 0.00375 uM) was 85.4056 and the “average viability (relative to control)” value (C. elegans; ivermectin 0.00375 uM) was 0.8507. For the same compound, the “development average norm L4/As” value (C. elegans; [13]) was 33.1, the “viability Avg” value (C. elegans; [13]) was 0.89 and the “average progress to L4 (development)” value (C. elegans; ivermectin 0.03 uM) was 25.8319. For the same compound, the “average viability (relative to control)” value (C. elegans; ivermectin 0.03 uM) was 0.6373, the “development average norm L4/As” value (C. elegans; [14]) was 0.0 and the “viability Avg” value (C. elegans; [14]) was 0.11. For the same compound, the “average progress to L4 (development)” value (C. elegans; ivermectin 0.06 uM) was 0, the “average viability (relative to control)” value (C. elegans; ivermectin 0.06 uM) was 0.09164 and the “nemacol-1 x ivermectin matrix dose-response raw data” value (C. elegans; [1]) was 131.9 and 90.0 and 88.0. For the same compound, the “nemacol-1 x ivermectin matrix dose-response raw data” value (C. elegans; [2]) was 106.4 and 120.0 and 114.0, the “nemacol-1 x ivermectin matrix dose-response raw data” value (C. elegans; ivermectin 0.03 uM (row head 30)) was 48.9 and 56.7 and 24.0 and the “nemacol-1 x ivermectin matrix dose-response raw data” value (C. elegans; [3]) was 12.8 and 13.3 and 2.0. The “total animals normalized to corresponding controls” value (“total animals normalized” for short) (C. elegans DA1316; ivermectin 0.0009375 uM) was 111.56, the “total animals normalized” value (C. elegans DA1316; ivermectin 0.001875 uM) was 102.36 and the “total animals normalized” value (C. elegans DA1316; ivermectin 0.00375 uM) was 113.75. The “total animals normalized” value (C. elegans DA1316; ivermectin 0.03 uM) was 108.02 and the “total animals normalized” value (C. elegans DA1316; ivermectin 0.06 uM) was 93.85.
